From patent US8283357B2, “Cycloalkylcarbamate benzamide aniline HDAC inhibitor compounds” (Gilead Sciences, Inc., priority 2009, dated 2012)

Assays:
HDAC-1 = HDAC-1 (Homo sapiens, UniProt Q13547); test: HDAC-1 inhibitory activity assay (fluorophore/quencher peptide substrate); type: biochemical; conditions: enzyme/compound pre-incubated 2 hours at room temperature; reaction about 45 minutes
Procedure: (§1) HDAC inhibitory activity of the compound of Example 1 was measured by an assay in which HDAC-1 or -3 were used as a target molecule. The test compound was suspended in and titrated in DMSO. It was then spotted into a 384-well test plate. The enzyme, HDAC-1 or -3, was diluted in assay buffer containing 25 mM Tris-HCl (pH 8.0), 137 mM NaCl, 2.7 mM KCl, and 0.01% Tween-20 and added to the pre-spotted compound. The enzyme/compound mix was incubated at room temperature for 2 hours. The peptide substrate containing a fluorophore/quencher pair was diluted in the same assay buffer and added to the compound/enzyme mix initiating the reaction. The reaction incubated at room temperature for about 45 minutes. A concentrated developer solution was diluted in the assay buffer, and added to the reaction. The reaction was incubated at room temperature for about 15 minutes and relative fluorescence was read on an instrument reader.

HDAC-3 = HDAC-3 (Homo sapiens, UniProt O15379); test: HDAC-3 inhibitory activity assay (fluorophore/quencher peptide substrate); type: biochemical; conditions: enzyme/compound pre-incubated 2 hours at room temperature; reaction about 45 minutes
Chain of HDAC-3 (O15379 whole entry, species assumed): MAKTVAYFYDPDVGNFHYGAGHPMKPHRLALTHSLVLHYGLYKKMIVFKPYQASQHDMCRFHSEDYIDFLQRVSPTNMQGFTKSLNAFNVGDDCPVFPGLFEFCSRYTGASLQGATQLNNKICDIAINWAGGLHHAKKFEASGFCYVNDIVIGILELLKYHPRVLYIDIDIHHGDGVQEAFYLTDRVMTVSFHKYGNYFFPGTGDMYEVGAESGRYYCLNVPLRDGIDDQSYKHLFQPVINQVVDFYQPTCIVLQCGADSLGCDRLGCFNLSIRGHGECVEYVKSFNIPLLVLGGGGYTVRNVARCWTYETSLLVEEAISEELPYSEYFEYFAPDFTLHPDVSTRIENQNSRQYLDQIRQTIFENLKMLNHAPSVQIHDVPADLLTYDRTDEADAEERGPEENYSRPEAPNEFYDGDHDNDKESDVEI
Chain of HDAC-3 (Q9Y618 395-489 partner limits assumed, species assumed): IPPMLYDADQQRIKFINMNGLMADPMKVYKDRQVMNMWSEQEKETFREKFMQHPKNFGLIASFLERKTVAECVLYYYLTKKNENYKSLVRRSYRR
Procedure: as §1

Chain of HDAC-1 (Q13547 whole entry, species assumed): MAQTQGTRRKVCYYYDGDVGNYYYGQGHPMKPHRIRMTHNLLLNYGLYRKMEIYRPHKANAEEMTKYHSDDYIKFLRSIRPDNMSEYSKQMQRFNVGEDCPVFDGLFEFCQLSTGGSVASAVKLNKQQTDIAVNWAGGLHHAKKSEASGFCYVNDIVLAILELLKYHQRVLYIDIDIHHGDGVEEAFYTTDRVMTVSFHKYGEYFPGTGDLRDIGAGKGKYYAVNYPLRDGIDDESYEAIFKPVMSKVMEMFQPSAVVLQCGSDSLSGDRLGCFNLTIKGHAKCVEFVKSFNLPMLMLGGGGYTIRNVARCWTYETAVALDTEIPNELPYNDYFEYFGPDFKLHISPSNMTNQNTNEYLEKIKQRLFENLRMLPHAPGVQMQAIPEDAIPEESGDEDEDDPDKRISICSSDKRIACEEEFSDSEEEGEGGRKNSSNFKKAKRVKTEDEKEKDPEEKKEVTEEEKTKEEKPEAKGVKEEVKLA

Row | IC50 (HDAC-1) [µM] | IC50 (HDAC-3) [µM] | Structure (SMILES)
1 | 0.0447 | 0.378 | CC(C)(C)OC(=O)NC1(C(=O)Nc2ccc(C(=O)Nc3ccccc3N)cc2)CCCCC1 [Example 1, tert-Butyl-1-((4-((2-aminophenyl)carbamoyl)phenyl)carbamoyl)cyclohexyl carbamate]
2 | 0.0628 | 0.378 | CC(C)(C)OC(=O)NC1(C(=O)Nc2ccc(C(=O)Nc3ccccc3N)cc2)CC1 [Example 2, tert-Butyl-1-((4-((2-aminophenyl)carbamoyl)phenyl)carbamoyl)cyclopropyl carbamate]
3 | 0.0609 | 0.482 | CC(C)(C)OC(=O)NC1(C(=O)Nc2ccc(C(=O)Nc3ccccc3N)cc2)CCCC1 [Example 3, tert-Butyl-1((4-((2-aminophenyl)carbamoyl)phenyl)carbamoyl)cyclopentylcarbamate]
4 | 0.025 | 0.171 | Nc1ccccc1NC(=O)c1ccc(NC(=O)C2(NC(=O)OCc3ccccc3)CC2)cc1 [Example 4, Benzyl-1-((4-((2-aminophenyl)carbamoyl)phenyl)carbamoyl)cyclopropyl carbamate]
5 | 0.0034 | > 10 | Nc1ccc(-c2cccs2)cc1NC(=O)c1ccc(NC(=O)C2(NC(=O)OCc3ccccc3)CC2)cc1 [Example 5, Benzyl-1-((4-((2-amino-5-(thiophen-2-yl)phenyl)carbamoyl)phenyl)carbamoyl)cyclopropyl carbamate]
6 | 0.0074 | > 10 | Nc1ccc(-c2ccc(F)cc2)cc1NC(=O)c1ccc(NC(=O)C2(NC(=O)OCc3ccccc3)CC2)cc1 [Example 6, Benzyl-1-((4-((2-amino-5-(4-fluorophenyl)phenyl)carbamoyl)phenyl)carbamoyl)cyclopropyl carbamate]
7 | 0.0267 | > 10 | Nc1ccc(-c2ccc(Cl)s2)cc1NC(=O)c1ccc(NC(=O)C2(NC(=O)OCc3ccccc3)CC2)cc1 [Example 7, Benzyl-1-((4-((2-amino-5-(5-chlorothiophen-2-yl)phenyl)carbamoyl)phenyl)carbamoyl)cyclopropylcarbamate]
8 | 0.0056 | > 10 | Nc1ccc(-c2cccs2)cc1NC(=O)c1ccc(NC(=O)C2(NC(=O)OCc3ccccc3)CC2)c(F)c1 [Example 8, Benzyl-1-((4-((2-amino-5-(thiophen-2-yl)phenyl)carbamoyl)-2-fluorophenyl)carbamoyl)cyclopropylcarbamate]
9 | 0.0082 | 7.51 | CN(C(=O)C1(NC(=O)OCc2ccccc2)CC1)c1ccc(C(=O)Nc2cc(-c3ccc(F)cc3)ccc2N)cc1 [Example 9, Benzyl-1-((4-((2-amino-5-(4-Fluorophenyl)phenyl)carbamoyl)phenyl)(methyl)carbamoyl)cyclopropylcarbamate]
10 | 0.0052 | > 10 | Nc1ccc(-c2ccc(F)cc2)cc1NC(=O)c1ccc(NC(=O)C2(N)CC2)cc1 [Example 10, N-(4-Amino-4′-fluorobiphenyl-3-yl)-4-(1-aminocyclopropanecarboxamido)benzamide]
11 | 0.009 | > 10 | CC(C)(C)NC(=O)NC1(C(=O)Nc2ccc(C(=O)Nc3cc(-c4ccc(F)cc4)ccc3N)cc2)CC1 [Example 11, N-(4-amino-4′-fluorobiphenyl-3-yl)-4-(1-(3-tert-butylureido)cyclopropanecarboxamido)benzamide]
